PubChem BioAssay AID180 (DTP/NCI, 2004)
Several values for one entry are separate records, joined by “and”; a condition that tells them apart may be missing. Equal values may be shown once.

System: BDF1 mice, Adenocarcinoma 755 s.c., tumor weight T/C
Assay: NCI In Vivo Anticancer Drug Screen. Data for tumor model Adenocarcinoma 755 (subcutaneous) in B6D2F1 (BDF1) mice
Settings: endpoint: mean tumor weight, higher = larger tumour
Procedure, shortened: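 In vivo antitumor screen on a transplantable tumor line. Result equals the measure in compound-treated animals divided by the same measure in vehicle controls.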

CCOC(=O)NP(=O)(N1CC1)N1CC1
T/C (dose: 2.37 mg/kg/injection, schedule: Q01DX011 (ip), vehicle: carboxymethylcellulose (CMC)): 118 % of control
T/C (dose: 2.5 mg/kg/injection, schedule: Q01DX011 (ip), vehicle: carboxymethylcellulose (CMC)): 67 % of control
T/C (dose: 4.75 mg/kg/injection, schedule: Q01DX011 (ip), vehicle: carboxymethylcellulose (CMC)): 104 % of control
T/C (dose: 5.0 mg/kg/injection, schedule: Q01DX011 (ip), vehicle: carboxymethylcellulose (CMC)): 73 % of control
T/C (dose: 7.6 mg/kg/injection, schedule: Q01DX011 (ip), vehicle: carboxymethylcellulose (CMC)): 101 % of control
T/C (dose: 8.0 mg/kg/injection, schedule: Q01DX011 (ip), vehicle: carboxymethylcellulose (CMC)): 52 % of control
T/C (dose: 9.5 mg/kg/injection, schedule: Q01DX011 (ip), vehicle: carboxymethylcellulose (CMC)): 61 % of control and 75 % of control
T/C (dose: 10.0 mg/kg/injection, schedule: Q01DX011 (ip), vehicle: carboxymethylcellulose (CMC)): 58 % of control and 77 % of control
T/C (dose: 12.66 mg/kg/injection, schedule: Q01DX011 (ip), vehicle: carboxymethylcellulose (CMC)): 54 % of control
T/C (dose: 13.3 mg/kg/injection, schedule: Q01DX011 (ip), vehicle: carboxymethylcellulose (CMC)): 18 % of control
T/C (dose: 19.0 mg/kg/injection, schedule: Q01DX011 (ip), vehicle: carboxymethylcellulose (CMC)): 17 % of control and 20 % of control
T/C (dose: 20.0 mg/kg/injection, schedule: Q01DX011 (ip), vehicle: carboxymethylcellulose (CMC)): 14 % of control

Nc1nc(SCc2ccc(Cl)cc2Cl)c2ncn(C3OC(CO)C(O)C3O)c2n1 (centres undefined)
T/C (dose: 4.69 mg/kg/injection, schedule: Q01DX011 (ip), vehicle: methylcellulose (MC)): 51 % of control
T/C (dose: 9.38 mg/kg/injection, schedule: Q01DX011 (ip), vehicle: methylcellulose (MC)): 49 % of control
T/C (dose: 18.75 mg/kg/injection, schedule: Q01DX011 (ip), vehicle: methylcellulose (MC)): 21 % of control
T/C (dose: 37.5 mg/kg/injection, schedule: Q01DX011 (ip), vehicle: methylcellulose (MC)): 2 % of control

O=c1[nH]cnc2c1ncn2C1CCCCC1
T/C (dose: 23.0 mg/kg/injection, schedule: Q01DX011 (ip), vehicle: carboxymethylcellulose (CMC)): 93 % of control and 111 % of control
T/C (dose: 23.1 mg/kg/injection, schedule: Q01DX011 (ip), vehicle: carboxymethylcellulose (CMC)): 86 % of control
T/C (dose: 23.12 mg/kg/injection, schedule: Q01DX011 (ip), vehicle: carboxymethylcellulose (CMC)): 74 % of control
T/C (dose: 46.0 mg/kg/injection, schedule: Q01DX011 (ip), vehicle: carboxymethylcellulose (CMC)): 74 % of control and 85 % of control
T/C (dose: 46.2 mg/kg/injection, schedule: Q01DX011 (ip), vehicle: carboxymethylcellulose (CMC)): 118 % of control
T/C (dose: 46.25 mg/kg/injection, schedule: Q01DX011 (ip), vehicle: carboxymethylcellulose (CMC)): 117 % of control
T/C (dose: 46.25 mg/kg/injection, schedule: Q01DX011 (oral), vehicle: carboxymethylcellulose (CMC)): 104 % of control
T/C (dose: 92.5 mg/kg/injection, schedule: Q01DX011 (ip), vehicle: carboxymethylcellulose (CMC)): 90 % of control and 99 % of control and 108 % of control
T/C (dose: 92.5 mg/kg/injection, schedule: Q01DX011 (oral), vehicle: carboxymethylcellulose (CMC)): 118 % of control
T/C (dose: 185.0 mg/kg/injection, schedule: Q01DX011 (oral), vehicle: carboxymethylcellulose (CMC)): 114 % of control
T/C (dose: 370.0 mg/kg/injection, schedule: Q01DX011 (oral), vehicle: carboxymethylcellulose (CMC)): 79 % of control

C=C(Cl)CN(CC)CCO
T/C (dose: 50.0 mg/kg/injection, schedule: Q01DX011 (ip), vehicle: other): 77 % of control
T/C (dose: 100.0 mg/kg/injection, schedule: Q01DX011 (ip), vehicle: other): 69 % of control
T/C (dose: 200.0 mg/kg/injection, schedule: Q01DX011 (ip), vehicle: other): 76 % of control

CCCCn1cnc2c(SCc3ccccc3Cl)nc(N)nc21
T/C (dose: 62.5 mg/kg/injection, schedule: Q01DX011 (ip), vehicle: methylcellulose (MC)): 24 % of control
T/C (dose: 125.0 mg/kg/injection, schedule: Q01DX011 (ip), vehicle: methylcellulose (MC)): 13 % of control
T/C (dose: 250.0 mg/kg/injection, schedule: Q01DX011 (ip), vehicle: methylcellulose (MC)): 5 % of control

O=C1NC(=O)C2(CCCc3ccc(N(CCCl)CCCl)cc32)N1 (centres undefined)
T/C (dose: 3.5 mg/kg/injection, schedule: Q01DX011 (ip), vehicle: carboxymethylcellulose (CMC)): 86 % of control
T/C (dose: 3.5 mg/kg/injection, schedule: Q01DX011 (ip), vehicle: other): 80 % of control
T/C (dose: 7.0 mg/kg/injection, schedule: Q01DX011 (ip), vehicle: carboxymethylcellulose (CMC)): 83 % of control
T/C (dose: 7.0 mg/kg/injection, schedule: Q01DX011 (ip), vehicle: other): 112 % of control
T/C (dose: 14.0 mg/kg/injection, schedule: Q01DX011 (ip), vehicle: carboxymethylcellulose (CMC)): 56 % of control
T/C (dose: 14.0 mg/kg/injection, schedule: Q01DX011 (ip), vehicle: other): 51 % of control
T/C (dose: 28.0 mg/kg/injection, schedule: Q01DX011 (ip), vehicle: carboxymethylcellulose (CMC)): 30 % of control
T/C (dose: 28.0 mg/kg/injection, schedule: Q01DX011 (ip), vehicle: other): 56 % of control
T/C (dose: 55.0 mg/kg/injection, schedule: Q01DX011 (ip), vehicle: carboxymethylcellulose (CMC)): 2 % of control
T/C (dose: 55.0 mg/kg/injection, schedule: Q01DX011 (ip), vehicle: other): 13 % of control

CC(C)Cn1cnc2c(Sc3c([N+](=O)[O-])ncn3C)nc(N)nc21
T/C (dose: 0.2 mg/kg/injection, schedule: Q01DX011 (ip), vehicle: methylcellulose (MC)): 71 % of control
T/C (dose: 0.39 mg/kg/injection, schedule: Q01DX011 (ip), vehicle: methylcellulose (MC)): 70 % of control
T/C (dose: 0.78 mg/kg/injection, schedule: Q01DX011 (ip), vehicle: methylcellulose (MC)): 68 % of control
T/C (dose: 3.12 mg/kg/injection, schedule: Q01DX011 (ip), vehicle: methylcellulose (MC)): 48 % of control
T/C (dose: 6.25 mg/kg/injection, schedule: Q01DX011 (ip), vehicle: methylcellulose (MC)): 22 % of control
T/C (dose: 12.5 mg/kg/injection, schedule: Q01DX011 (ip), vehicle: methylcellulose (MC)): 7 % of control
T/C (dose: 25.0 mg/kg/injection, schedule: Q01DX011 (ip), vehicle: methylcellulose (MC)): 2 % of control

O=C(Nc1ccc(C2=NCCN2)cc1)c1cc(Cl)c(C(=O)Nc2ccc(C3=NCCN3)cc2)cc1Cl
T/C (dose: 15.0 mg/kg/injection, schedule: Q01DX011 (ip), vehicle: methylcellulose (MC)): 105 % of control
T/C (dose: 30.0 mg/kg/injection, schedule: Q01DX011 (ip), vehicle: methylcellulose (MC)): 68 % of control

CCCCn1nnc2c(Nc3ccc(Cl)cc3)nc(N)nc21
T/C (dose: 62.5 mg/kg/injection, schedule: Q01DX011 (ip), vehicle: carboxymethylcellulose (CMC)): 96 % of control
T/C (dose: 125.0 mg/kg/injection, schedule: Q01DX011 (ip), vehicle: carboxymethylcellulose (CMC)): 89 % of control
T/C (dose: 250.0 mg/kg/injection, schedule: Q01DX011 (ip), vehicle: carboxymethylcellulose (CMC)): 68 % of control

CC(=O)[C@@]12OC(C)(C)O[C@@H]1C[C@H]1[C@@H]3C[C@H](C)C4=CC(=O)CC[C@]4(C)[C@H]3CC[C@@]12C
T/C (dose: 56.0 mg/kg/injection, schedule: Q01DX011 (sc), vehicle: steriod suspending solution): 28 % of control
T/C (dose: 62.0 mg/kg/injection, schedule: Q01DX011 (sc), vehicle: steriod suspending solution): 34 % of control
T/C (dose: 75.0 mg/kg/injection, schedule: Q01DX011 (sc), vehicle: steriod suspending solution): 38 % of control
T/C (dose: 113.0 mg/kg/injection, schedule: Q01DX011 (sc), vehicle: steriod suspending solution): 46 % of control
T/C (dose: 125.0 mg/kg/injection, schedule: Q01DX011 (sc), vehicle: steriod suspending solution): 21 % of control
T/C (dose: 150.0 mg/kg/injection, schedule: Q01DX011 (sc), vehicle: steriod suspending solution): 18 % of control
T/C (dose: 225.0 mg/kg/injection, schedule: Q01DX011 (sc), vehicle: steriod suspending solution): 24 % of control
T/C (dose: 250.0 mg/kg/injection, schedule: Q01DX011 (sc), vehicle: steriod suspending solution): 17 % of control
T/C (dose: 300.0 mg/kg/injection, schedule: Q01DX011 (sc), vehicle: steriod suspending solution): 15 % of control
T/C (dose: 450.0 mg/kg/injection, schedule: Q01DX011 (sc), vehicle: steriod suspending solution): 35 % of control
T/C (dose: 600.0 mg/kg/injection, schedule: Q01DX011 (sc), vehicle: steriod suspending solution): 14 % of control
T/C (dose: 900.0 mg/kg/injection, schedule: Q01DX011 (sc), vehicle: steriod suspending solution): 16 % of control

O=C1Nc2ccccc2SC1c1ccccc1Cl (centres undefined)
T/C (dose: 75.0 mg/kg/injection, schedule: Q01DX011 (ip), vehicle: methylcellulose (MC)): 94 % of control and 78 % of control
T/C (dose: 150.0 mg/kg/injection, schedule: Q01DX011 (ip), vehicle: methylcellulose (MC)): 54 % of control and 60 % of control

NC(=S)N/N=C/c1cccnc1
T/C (dose: 1:1000.0 dilution, schedule: Q01DX006 (ip), vehicle: water): 124 % of control
T/C (dose: 1:2000.0 dilution, schedule: Q01DX006 (ip), vehicle: water): 110 % of control

CC(Nc1ncnc2nc[nH]c12)C(=O)O (centres undefined)
T/C (dose: 25.0 mg/kg/injection, schedule: Q01DX011 (ip), vehicle: saline): 114 % of control
T/C (dose: 75.0 mg/kg/injection, schedule: Q01DX011 (ip), vehicle: saline): 86 % of control
T/C (dose: 225.0 mg/kg/injection, schedule: Q01DX011 (ip), vehicle: saline): 20 % of control
